# Source: ChEMBL document CHEMBL1158077, “Microbial transformation and butyrylcholinesterase inhibitory activity of (-)-caryophyllene oxide and its derivatives” (J Nat Prod, 2006)
# Biological target: Cholinesterase (Equus caballus, UniProt P81908)
# Experiment: Inhibition of horse serum BuChE by Ellman's method
# Chain of Cholinesterase (P81908 whole entry): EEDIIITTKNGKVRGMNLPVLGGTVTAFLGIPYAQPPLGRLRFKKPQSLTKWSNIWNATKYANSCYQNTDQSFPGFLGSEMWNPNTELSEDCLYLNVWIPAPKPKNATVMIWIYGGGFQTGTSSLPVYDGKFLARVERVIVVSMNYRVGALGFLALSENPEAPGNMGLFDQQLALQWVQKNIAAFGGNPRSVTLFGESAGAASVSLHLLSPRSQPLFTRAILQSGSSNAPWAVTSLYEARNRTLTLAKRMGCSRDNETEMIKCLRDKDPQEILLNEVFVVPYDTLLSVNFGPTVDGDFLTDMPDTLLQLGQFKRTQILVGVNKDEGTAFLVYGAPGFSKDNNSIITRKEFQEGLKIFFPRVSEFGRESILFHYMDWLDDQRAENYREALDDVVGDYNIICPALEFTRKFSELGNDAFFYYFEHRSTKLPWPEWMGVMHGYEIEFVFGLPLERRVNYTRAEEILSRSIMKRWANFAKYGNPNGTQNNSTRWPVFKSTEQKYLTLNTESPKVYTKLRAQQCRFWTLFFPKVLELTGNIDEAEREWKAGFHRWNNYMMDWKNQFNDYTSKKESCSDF
row,Structure (SMILES),IC50
1,C=C1CC[C@H]2O[C@]2(C)CC[C@@H]2[C@@H]1C[C@]2(C)CO,10.9 µM
2,C=C1CC[C@H]2O[C@]2(C)CC[C@@H]2[C@@H]1C[C@@]2(C)CO,189 µM
3,CC1(C)C[C@H](O)[C@]23CC[C@@H](O)[C@](CO)(CC[C@@H]12)C3,43.6 µM
4,C=C1CC[C@@H](O)[C@](C)(O)CC[C@@H]2[C@@H]1CC2(C)C,44 µM
5,CC1(C)C[C@@H]2C(=O)CC[C@H]3O[C@]3(C)C[C@H](O)[C@H]21,459 µM
6,CC1(C)C[C@H]2[C@H]1CC[C@]1(C)[C@H](O)CC[C@@]2(O)[C@H]1O,23.6 µM
7,CC1(C)C[C@@H]2[C@@H](CO)CC[C@H]3O[C@]3(C)[C@H](O)C[C@H]21,155 µM
8,CC1(C)C[C@H](O)[C@]23CC[C@@H](O)[C@](C)(CC[C@@H]12)C3,456 µM
9,C=C1CC[C@@H]2O[C@]2(C)CC[C@@H]2[C@@H]1CC2(C)C,208 µM
10,CC1(C)C[C@@H]2[C@@H](CO)CC[C@H]3O[C@]3(C)CC[C@H]21,26.4 µM
